Assay: in vivo
Details: rat, iv, 1.4 mg/kg; for Kp at 0.25 hr / Kp at 1 hr / Kp at 2 hr: Liver-plasma concentration ratio of Endothal
Experimental: 113 was dissolved in 4% NaHCO3 in saline for IV administration. The detailed procedure of dosing solution preparation was presented in Appendix I.
15 animals were placed on the study. The animals in IV arm were free access to food and water. For PO dose group, the animals were fasted overnight prior to dosing and the food was resumed 4 hours postdose.
The IV injection was conducted via foot dorsal vein. PO via oral gavage.
Blood collection: The animal is restrained manually. Approximately 200 μL of blood/time point is collected into sodium heparin tube via cardiac puncture for terminal bleeding (anesthetized under carbon dioxide). Blood sample will be put on ice and centrifuged to obtain plasma sample (2000 g, 5 min under 4° C.) within 10 minutes.
Liver collection: The animal will be euthanized with carbon dioxide inhalation. Open abdominal cavity with scissor to expose internal organs. Hold the carcass in an upright position and allow the organs to fall forward. Cut the connective tissues and remove the organs. Then the organs are rinsed with cold saline, dried on filtrate paper, placed into a screw-top tube and weighed, snap frozen by placing into dry-ice immediately.
Brain collection: Make a mid-line incision in the animals scalp and retract the skin. Using small bone cutters and rongeurs, remove the skull overlying the brain. Remove the brain using a spatula and rinse with cold saline, dried on filtrate paper, placed into a screw-top tube and weighed, snap frozen by placing into dry-ice immediately. […] Plasma, brain and liver samples were stored at approximately −80° C. until analysis. The backup samples will be discarded after three weeks after in-life completion unless requested. The unused dosing solutions will be discarded within three weeks after completion of the study.
Pharmacokinetic Analysis Software: The PK parameters were determined by non-compartmental model of non-compartmental analysis tool, Pharsight Phoenix WinNonlin® 6.2 software. […] Concentration data within 80%-120% of LLOQ was considered within normal instrumental variation and presented in the results. Terminal t1/2 calculation: Time points were automatic selected by “best fit” model for terminal half life estimation as the first option. Manual selection was applied when “best fit” could not well define the terminal phase. Results

[1] = male, SD, liver concentration of Endothal

SMILES: O=C(O)C1C2CCC(O2)C1C(=O)O (stereo not drawn) [Endothal, 7-oxabicyclo[2.2.1]heptane-2,3-dicarboxylic acid]
- Kp at 0.25 hr (male, SD): 29.2
- Kp at 1 hr (male, SD): 27.9
- Kp at 2 hr (male, SD): 23
- Kp at 0.25 hr (male, SD, 113 IV 1.4 mg/kg, SD rats, 0.25 hr, mean): 22.7
- Kp at 1 hr (male, SD, 113 IV 1.4 mg/kg, SD rats, 1 hr, individual): 21.7
- Kp at 2 hr (male, SD, 113 IV 1.4 mg/kg, SD rats, 2 hr, individual): 45.7
- concentration at 0.25 hr [1]: 727 ng/g
- concentration at 1 hr [1]: 902 ng/g
- concentration at 2 hr [1]: 998 ng/g
- concentration at 6 hr [1]: 526 ng/g
- concentration at 10 hr [1]: 288 ng/g
- concentration at 24 hr [1]: 66.9 ng/g
- concentration at 2 hr (male, SD, plasma concentration of Endothal): 30.4 ng/mL
- AUC(0-last) in liver: 8086 ng·h/g
- AUC(0-∞) in liver: 8678 ng·h/g

— patent publication US11236102B2, “Oxabicycloheptane prodrugs” (Lixte Biotechnology, Inc., priority 2015, dated 2022)
